Measurements published in patent US11046991B2, “Rapid preconcentration of viable bacteria using magnetic ionic liquid for PCR amplification and culture-based diagnostics” (priority 2017, dated 2021).
Where two headings read alike, the source gives them in different places.

Columns and labels:
[1] = Magnetic susceptibility, SQUID magnetometer; type: physicochemical; conditions: for μeff, effective magnetic moment: from magnetic susceptibility data, SQUID
Description: The μeff values for each exemplary MIL were determined using a Quantum Design MPMS SQUID magnetometer following procedures similar to those previously reported. (Y. Mudryk, P. Manfrinetti, V. Smetana, J. Liu, M. L. Fornasini, A. Provino, V. K. Pecharsky, G. J. Miller and K. A. Gschneidner, J. Alloys Compd, 2013, 557, 252-260).

[2] = system: E. coli K12 cells; type: cell-based
Description: Since culture-based methods are contingent upon the isolation of viable bacteria, the detection of E. coli following MIL-based cell extraction is influenced by the cytotoxicity of MILs. To study the effect of MILs on the growth of E. coli, a 1 mL aliquot of LB media was inoculated with 8.0×10^2±0.5×10^2 CFUs mL^−1 and spiked with approximately 10 μL of a MIL. The mixture was agitated by vortex to simulate the recovery procedure after which a 100 μL aliquot of the suspension was plated on selective agar.

[3] = system: E. coli; test: PCR amplification of LB back-extraction solution after MIL-based extraction; conditions: for E. coli concentration at which bacterial pDNA was detected by PCR: cell recovery in LB media prior to PCR, 2 mL sample; for amplicon after extraction of cell filtrate (cell-free DNA): filtrate of 1.68×10^5 CFUs mL^−1 suspension through 0.22 μm filter
Description: (§1) A general schematic for the MIL-based cell extraction procedure is depicted in FIG. 10. In a 4 mL screw cap glass vial, a controlled volume (e.g., 10 μL) of MIL was added to 2 mL of diluted cell suspension and dispersed into microdroplets by vortex agitation for 15-120 s. Following the dispersive extraction, a 0.9 T magnetic field was applied to collect the cell-enriched MIL extraction phase. After the aqueous phase was decanted, the MIL was subjected to a static wash with 2 mL of deionized water to ensure that residual cell suspension was removed. The extracted E. coli was recovered from the MIL solvent by vortexing the MIL in 1 mL of LB media from 30 to 300 s. Following back-extraction, aliquots of the cell-enriched LB media were cultured on selective agar as well as analyzed by PCR.
Following the recovery of E. coli cells from the MIL extraction phase, an aliquot of the LB back-extraction solution was analyzed by PCR. […] The thermal protocol used for amplification of the MTAP gene was as follows: 5 min initial denaturation at 95° C. followed by 30 cycles of 30 s denaturation at 95° C., 45 s annealing at 54° C., and elongation for 45 s at 72° C.
After thermal cycling, the PCR products were mixed with 10 μL of bromophenol blue tracking dye solution (30% glycerol v/v) and loaded on a 1% agarose gel stained with SYBR Safe DNA gel stain. The PCR amplicon was subjected to electrophoresis at approximately 4 V cm^−1 and subsequently visualized using a transilluminator.
To improve detection limits, cells were recovered from the MIL phase using […] and a 1 μL aliquot of LB media was analyzed by PCR amplification. […] MILs as extraction media.
MIL. […] 1999; 37:2479-82). It should be noted that PCR assays are unable to distinguish between live and dead cells and, therefore, are complementary to microbiological culture for the determination of viable cells in a sample.

[4] = Thermal stability, MIL film in GC capillary with flame ionization detection; type: physicochemical; conditions: for onset of decomposition (thermal stability): 40° C. to 350° C. at 1° C./min
Description: The thermal stability of all exemplary MILs was tested by monitoring the thermal volatilization/decomposition of the MIL when the MIL was used as a stationary phase in gas chromatography. To achieve this, an approximate 0.25-0.28 μm film of IL/MIL was immobilized on the inner wall of a fused silica capillary. The IL/MIL coated capillary was then heated slowly in a GC oven and an ultra-sensitive flame ionization detector (FID) was used to detect any volatilization/decomposition of the IL/MIL. These tests were run using a temperature program starting at 40° C. and increased at 1° C./min to 350° C. on an Agilent 6850 gas chromatograph with a flame ionization detector (Santa Clara, Calif., USA). The [P66614^+] [Cl^−] IL was also coated under the same conditions and was used as a reference.

[5] = Hydrophobicity comparison: 50 μL MIL in 12 mL water, vortexed and heated to 85° C.; type: physicochemical; conditions: 50 μL MIL in 12 mL deionized water, 85° C. for 10 minutes
Description: […] […] Vortexing the MIL droplet caused dispersion of the MIL into fine microdroplets that were suspended within the aqueous solution, ultimately settling at the bottom of the vessel. […] Each MIL was vortexed and heated to 85° C. for 10 minutes.

[6] = 1 second vial inversion (viscosity comparison); type: physicochemical; conditions: 1 second inversion of each MIL
Description: FIG. 2 compares the viscosities of [P66614^+]2[MnCl4^2−], [P66614^+][Ni(hfacac)3^−], and [P66614^+][Nd(hfacac)4^−] by performing a 1 second inversion of each MIL.

[7] = system: E. coli; test: MIL-based extraction of viable E. coli, selective culture and colony enumeration; conditions: aqueous solutions of 1.68×10^5 CFUs mL^−1
Description: For each cell extraction experiment, 2 mL of sterile LB media with 100 μg mL^−1 carbenicillin was inoculated with 0.5 μL of E. coli glycerol stock and incubated overnight at 37° C. and 225 rpm. The overnight culture was centrifuged at 2820 g for 8 min and the supernatant discarded. The cells were then vortexed for 15 s in 2 mL of deionized water and centrifuged once again at 2820 g for 8 min. Following a total of three washes, the cells were re-suspended in 1 mL of deionized water. The concentration of cells within the suspension was initially determined by measuring the optical density of the sample at 600 nm (OD600), where an OD600 equal to 1.000 represents 8×10^8 E. coli cells mL^−1. The bacterial suspension was diluted to an OD600 value of 0.021 (1.68×10^7 cells mL^−1), after which 10-fold serial dilutions were performed to yield the desired sample concentration. Since the sample concentrations were below the detection limit of the spectrophotometer, the final concentration of each sample (in CFUs mL^−1) was obtained using a plate counting method. Briefly, 15 μL of diluted cell suspension were mixed with 985 μL of LB media and vortexed for 3 min. A […] aliquot of the suspension was spread onto a selective LB agar plate with 100 μg mL^−1 carbenicillin and incubated overnight at 37° C. to obtain visible colonies.
as §1
To detect viable bacteria recovered from the MIL extraction solvent, a culture-based method selective for E. coli transformants was employed. Following MIL-based extraction, a 100 μL aliquot of the LB back-extraction solution was plated on LB agar containing 100 μg mL^−1 carbenicillin and incubated overnight at 37° C. Visible colonies were counted, tabulated, and compared to the colonies obtained for the sample prior to extraction. The enrichment factor (EF) from the MIL-based extraction was calculated by Equation 1, where CMIL is the concentration of CFUs within the MIL extraction phase and CS represents the concentration of CFUs in the bacterial suspension prior to extraction. EF=CMIL/CS Equation 1
To determine if MILs can extract viable E. coli cells, aqueous solutions of 1.68×10^5 CFUs mL^−1 were extracted with each of the seven MILs using an approach that is similar to one depicted in FIG. 10. […] [Co(hfacac)3^−] MILs with the greatest number of colonies obtained from the Ni(II)-based MIL extractions.

[8] = 25° C.; cited from earlier work
[9] = Water solubility observation of intermediates and preliminary MILs (hydrophobicity testing); type: physicochemical; conditions: color change in the aqueous solution two hours after addition of the MIL
Description: The [P66614^+][Cl^−] IL is commercially available.
(§2) Pairing of intermediate 1a to an imidazolium-based cation was carried out for preliminary viscosity and hydrophobicity testing. A metathesis reaction was performed between 1-(6-hydroxyhexyl)-3-methylimidazolium chloride [MC6OHIM^+][Cl^−] and intermediate 1a to form [MC6OHIM^+] [Co(hfacac)3^−]. […] Since the broad applicability of hydrophobic MILs is very much dependent upon the ease with which they can be transferred using traditional liquid handling methods, the [P66614^+] cation was selected for preparation of the hfacac-based MILs.

[10] = Pipette transfer at room temperature (preliminary viscosity testing); type: physicochemical; conditions: neat MIL, without heating
Description: as §2

[11] = LB media with 8.0×10^2 CFUs mL^−1, approximately 10 μL of MIL, compared to unexposed standard

| Compound | μeff, effective magnetic moment [1] | influence on the growth of E. coli [2, 11] | E. coli concentration at which bacterial pDNA was detected by PCR [3] | dissolution into the aqueous phase [5] | viscosity [8] | other results |
| --- | --- | --- | --- | --- | --- | --- |
| CCCCCCCCCCCCCC[P+](CCCCCC)(CCCCCC)CCCCCC.O=C(C=C([O-])C(F)(F)F)C(F)(F)F.O=C(C=C([O-])C(F)(F)F)C(F)(F)F.O=C(C=C([O-])C(F)(F)F)C(F)(F)F.O=C(C=C([O-])C(F)(F)F)C(F)(F)F.[Dy+3] [MIL 4, [P66614^+] tetrakis(hexafluoroacetylaceto)dysprosate(III)] | 9.7 μB | little to no influence on the growth of E. coli | 1.68×10^5 CFUs mL^−1 |  |  | amplicon after extraction of cell filtrate (cell-free DNA) [3]: No amplicon was detected |
| CCCCCCCCCCCCCC[P+](CCCCCC)(CCCCCC)CCCCCC.O=C(C=C([O-])C(F)(F)F)C(F)(F)F.O=C(C=C([O-])C(F)(F)F)C(F)(F)F.O=C(C=C([O-])C(F)(F)F)C(F)(F)F.[Co+2] [MIL 1, trihexyl(tetradecyl)phosphonium tris(hexafluoroacetylaceto)cobaltate(II)] | 4.3 μB |  | 1.68×10^5 CFUs mL^−1 | no sign of dissolution into the aqueous phase |  | sharp increase in the rate of decomposition [4]: around 200 °C; onset of decomposition (thermal stability) [4]: approximately 130 °C; influence on the growth of E. coli [2]: little to no influence on the growth of E. coli |
| CCCCCCCCCCCCCC[P+](CCCCCC)(CCCCCC)CCCCCC.O=C(C=C([O-])C(F)(F)F)C(F)(F)F.O=C(C=C([O-])C(F)(F)F)C(F)(F)F.O=C(C=C([O-])C(F)(F)F)C(F)(F)F.O=C(C=C([O-])C(F)(F)F)C(F)(F)F.[Nd+3] [MIL 6, [P66614^+] tetrakis(hexafluoroacetylaceto)neodymate(III)] | 2.8 μB | little to no influence on the growth of E. coli | 1.68×10^5 CFUs mL^−1 | no sign of dissolution into the aqueous phase |  | onset of decomposition (thermal stability) [4]: around 225 °C; movement down the vial [6]: flow easily toward the bottom of the vial; amplicon after extraction of cell filtrate (cell-free DNA) [3]: No amplicon was detected |
| CCCCCCCCCCCCCC[P+](CCCCCC)(CCCCCC)CCCCCC.O=C(C=C([O-])C(F)(F)F)C(F)(F)F.O=C(C=C([O-])C(F)(F)F)C(F)(F)F.O=C(C=C([O-])C(F)(F)F)C(F)(F)F.[Mn+2] [MIL 2, [P66614^+] tris(hexafluoroacetylaceto)manganate(II)] |  |  |  |  |  | degradation start, higher than the cobalt-based MIL [4]: approximately 25 °C; μeff ([1]; at higher temperatures): 5.5 μB; μeff ([1]; at lower temperatures): 5.8 μB; influence on the growth of E. coli [2]: little to no influence on the growth of E. coli; visible colonies after back-extraction with LB media and culture on selective agar [7]: did not yield any visible colonies |
| CCCCCCCCCCCCCC[P+](CCCCCC)(CCCCCC)CCCCCC.CCCCCCCCCCCCCC[P+](CCCCCC)(CCCCCC)CCCCCC.[Cl][Mn-2]([Cl])([Cl])[Cl] [[P66614^+]2[MnCl4^2−], [P66614^+] tetrachloromanganate(II), reference compound] |  |  |  |  | 75230 cP | movement down the vial [6]: little to no movement down the vial |
| CCCCCCCCCCCCCC[P+](CCCCCC)(CCCCCC)CCCCCC.[Cl-] [[P66614^+] [Cl^−], Trihexyl(tetradecyl)phosphonium chloride, reference compound] |  |  |  |  |  | thermal decomposition compared with the MILs ([4]; reference): lowest thermal decomposition |
| CCCCCCCCCCCCCC[P+](CCCCCC)(CCCCCC)CCCCCC.CCCCCCCCCCCCCC[P+](CCCCCC)(CCCCCC)CCCCCC.CCCCCCCCCCCCCC[P+](CCCCCC)(CCCCCC)CCCCCC.[Cl][Gd-3]([Cl])([Cl])([Cl])([Cl])[Cl] [[P66614]3[GdCl6^3−], [P66614] hexachlorogadolinate(III)] |  |  |  |  | 18390 cP |  |
| C[n+]1ccn(CCCCCCO)c1.O=C(C=C([O-])C(F)(F)F)C(F)(F)F.O=C(C=C([O-])C(F)(F)F)C(F)(F)F.O=C(C=C([O-])C(F)(F)F)C(F)(F)F.[Co+2] [[MC6OHIM^+] [Co(hfacac)3^−]] |  |  |  |  |  | solubility in water [9]: soluble in water; transfer with a pipette [10]: could not be transferred with a pipette |
| CCCCCCCCCCCCCC[P+](CCCCCC)(CCCCCC)CCCCCC [No. 1, [P66614^+] tetrachloroferrate(III), reference compound] |  | hindered the proliferation of cells |  | dissolving into the aqueous solution | 650 cP |  |
| CCCCCCCCCCCCCC[P+](CCCCCC)(CCCCCC)CCCCCC.O=C(C=C([O-])C(F)(F)F)C(F)(F)F.O=C(C=C([O-])C(F)(F)F)C(F)(F)F.O=C(C=C([O-])C(F)(F)F)C(F)(F)F.O=C(C=C([O-])C(F)(F)F)C(F)(F)F.[Gd+3] [MIL 5, [P66614^+] tetrakis(hexafluoroacetylaceto)gadolinate(III)] | 7.7 μB | hindered the proliferation of cells |  |  |  |  |
